The values that follow come from US20260124213A1, “STAPHYLOCOCCUS AUREUS PBP4 INHIBITORS AND METHOD OF USE” (UNIVERSITY OF ROCHESTER, priority 2022, published 2026).

Assay [1] has as its target recombinant B. subtilis PBP4 (Bacillus subtilis, UniProt P40750). In words: BOCILLIN FL fluorescence polarization binding competition. How it is done: PBP4 BOCILLIN™ FL Binding Competition Assays. The ability of putative PBP4 inhibitors to impact the active site of recombinant PBP4 was assessed using two previously established BOCILLIN™-FL Penicillin (Penicillin V conjugated to BODIPY fluorescent dye) binding assays. First, fluorescence polarization assays were performed as previously described. Briefly, the indicated amount of the putative PBP4 inhibitor or control antibiotic was incubated with 1 μM recombinant B. subtilis PBP4 or S. aureus PBP2a in potassium phosphate buffer (40 mM K2HPO4 and 10 mM KH2PO4) for 1 hour in black 96-well microtiter plates (Corning Life Sciences®, Corning, NY). Following incubation, 1 μM (final concentration) BOCILLIN™ FL penicillin was added, and the mixture was incubated for 30 minutes. BOCILLIN™ FL fluorescence polarization was measured at (495nm excitation and 545nm emission) in a SpectraMax® M5 multimode plate reader (Molecular Devices®, San Jose, CA). All assays were repeated at least 8 times, averaged, and values falling outside of 2 standard deviations were considered outliers. Resulting data was plotted as percentage BOCILLIN™ FL binding inhibition=(T/U)×100; T=FL polarization of ((PBP4+BOCILLIN™ FL)−(PBP4+BOCILLIN™ FL+inhibitor compound)), U=FL polarization of ((PBP4+BOCILLIN™ FL)−(BOCILLIN™ FL)). Second, gel electrophoresis and fluorescence detection were used to measure BOCILLIN™ FL labeling of PBP4 treated with the known PBP4 inhibitor cefoxitin (positive control), kanamycin (negative control) or 9314848 (test compound). Briefly, 1 μM of recombinant PBP4 was mixed with 0, 50, 500, 2000, or 5000 μM 9314848 or control antibiotic in 50 mM phosphate buffer (pH 7.4) and incubated at 37° C. for 30 minutes. Next 40 μM of BOCILLIN™ FL was added to the reaction mixture and incubated for an additional 30 minutes at 37° C. Reactions were stopped by adding 5×SDS-PAGE gel loading dye, heated at 100° C. for 3 minutes and separated by electrophoresis in 12% SDS-PAGE (2 h, 120 Volts). BOCILLIN™ FL labeled PBP4 was imaged at λ=365 nm using a BioRad© Gel Doc EZ™ Imaging system and the gel was then subsequently stained with Bio-safe Coomassie Brilliant Blue stain (BioRad©, Hercules, CA, USA) to measure the amount of protein present in each reaction condition and analyzed using NIH-ImageJ software. The percent BOCILLIN™ FL binding was calculated by first normalizing the protein present in each reaction condition to that of untreated control and subsequently applying each reaction's protein normalization factor to each reaction's fluorescent signal. The percentage BOCILLIN™ FL binding inhibition was then calculated as the normalized band intensity of antibiotic/compound treated sample as compared to control sample (PBP4+BOCILLIN™ FL in the absence of compound).
To more directly evaluate whether 9314848 is likely to affect PBP4 function, the compound's ability to bind recombinant PBP4 was measured using BOCILLIN™ FL fluorescence polarization displacement assays. The premise for the assay is that the fluorescence polarization of the fluorescently labeled β-lactam, penicillin V (BOCILLIN™ FL), will increase upon binding to its cognate target (i.e., PBP4). Further, compounds that bind PBP4 and inhibit its function would impede BOCILLIN™ FL binding thereby allowing assessment of the protein binding affinity of 9314848 using a simple fluorescence reduction assay.

For a further assay, the system named is recombinant PBP4. In words: BOCILLIN FL labeling of PBP4, gel electrophoresis and fluorescence detection. The note with it: kanamycin 2000 μM or 5000 μM. The assay is classed as binding. The procedure: PBP4 BOCILLIN™ FL Binding Competition Assays. The ability of putative PBP4 inhibitors to impact the active site of recombinant PBP4 was assessed using two previously established BOCILLIN™-FL Penicillin (Penicillin V conjugated to BODIPY fluorescent dye) binding assays. First, fluorescence polarization assays were performed as previously described. Briefly, the indicated amount of the putative PBP4 inhibitor or control antibiotic was incubated with 1 μM recombinant B. subtilis PBP4 or S. aureus PBP2a in potassium phosphate buffer (40 mM K2HPO4 and 10 mM KH2PO4) for 1 hour in black 96-well microtiter plates (Corning Life Sciences®, Corning, NY). […] BOCILLIN™ FL fluorescence polarization was measured at (495nm excitation and 545nm emission) in a SpectraMax® M5 multimode plate reader (Molecular Devices®, San Jose, CA). […] Second, gel electrophoresis and fluorescence detection were used to measure BOCILLIN™ FL labeling of PBP4 treated with the known PBP4 inhibitor cefoxitin (positive control), kanamycin (negative control) or 9314848 (test compound). […] BOCILLIN™ FL labeled PBP4 was imaged at λ=365 nm using a BioRad© Gel Doc EZ™ Imaging system and the gel was then subsequently stained with Bio-safe Coomassie Brilliant Blue stain (BioRad©, Hercules, CA, USA) to measure the amount of protein present in each reaction condition and analyzed using NIH-ImageJ software. […]

For a further assay, the system named is MRSA strain AH-1263. In words: Broth microdilution antibiotic potentiation. The assay is classed as cell-based, Staphylococcus aureus. The note with it: for MIC: Staphylococcus aureus, MRSA. How it is done:
(§1) Broth Microdilution Method for Antibiotic Potentiation with MRSA Strains. Bacteria were cultured for 6 hours in CAMHB and sub-cultured to 5×10^5 CFU/mL in CAMHB. Subcultures were aliquoted (4 mL) into culture tubes and then inoculated with compound from 10 mM or 100 mM stock in DMSO to the desired concentration. […]. Bacteria treated with antibiotic alone served as the control. Samples from the secondary culture tubes were then aliquoted (200 μL) into the first row of wells of a 96-well microtiter plate. Rows 2-11 were filled (100 μL) with the remaining 4 mL of bacterial subculture containing the adjuvant. Row 12 was filled (100 μL) with uninoculated media. From row 1, 100 μL was transferred to row two and mixed 5-8 times before being transferred to row 3. This procedure was used to serial dilute the rest of the rows through 10. The microtiter plate was then covered in Press 'n Seal and incubated at 37° C.
(Dilution methods test growth across graded concentrations, often in twofold steps.)

For another assay, the system named is MRSA strain AH-2204. In words: Broth microdilution antibiotic potentiation. In kind it is cell-based, Staphylococcus aureus. The note with it: Staphylococcus aureus, MRSA. The procedure: as §1
Assay [2] concerns MRSA strain ATCC BAA-1556. In words: Broth microdilution antibiotic potentiation. The assay is classed as cell-based, Staphylococcus aureus. The note with it: for MIC: Staphylococcus aureus. The procedure: as §1
Another assay has as its system MRSA strain 700699. In words: Broth microdilution antibiotic potentiation. The assay is classed as cell-based. The note with it: Staphylococcus aureus, read-out: Oxacillin MIC, no compound (—). How it is done: as §1
In the next assay the test system is MRSA strain BAA-1685. In words: Broth microdilution antibiotic potentiation. In kind it is cell-based. The note with it: Staphylococcus aureus, read-out: Oxacillin MIC, no compound (—). How it is done: as §1
Another assay relates to MRSA strain BAA-44. In words: Broth microdilution antibiotic potentiation. In kind it is cell-based. The note with it: Staphylococcus aureus, read-out: Oxacillin MIC, no compound (—). The procedure:
as §1

For another assay, the system named is MRSA strain BAA-811. In words: Broth microdilution antibiotic potentiation. In kind it is cell-based. The note with it: Staphylococcus aureus, read-out: Oxacillin MIC, no compound (—). How it is done:
as §1

For a further assay, the system named is MRSA strain 43300. In words: Broth microdilution antibiotic potentiation. The assay is classed as cell-based. The note with it: Staphylococcus aureus, read-out: Oxacillin MIC, no compound (—). How it is done: (§2) Broth Microdilution Method for Antibiotic Potentiation with MRSA Strains. Bacteria were cultured for 6 hours in CAMHB and sub-cultured to 5×10^5 CFU/mL in CAMHB. Subcultures were aliquoted (4 mL) into culture tubes and then inoculated with compound from 10 mM or 100 mM stock in DMSO to the desired concentration. […] Bacteria treated with antibiotic alone served as the control. Samples from the secondary culture tubes were then aliquoted (200 μL) into the first row of wells of a 96-well microtiter plate. Rows 2-11 were filled (100 μL) with the remaining 4 mL of bacterial subculture containing the adjuvant. Row 12 was filled (100 μL) with uninoculated media. From row 1, 100 μL was transferred to row two and mixed 5-8 times before being transferred to row 3. This procedure was used to serial dilute the rest of the rows through 10. The microtiter plate was then covered in Press 'n Seal and incubated at 37° C.

The test system of another assay is MRSA strain 700789. In words: Broth microdilution antibiotic potentiation. The assay is classed as cell-based. The note with it: Staphylococcus aureus, read-out: Oxacillin MIC, no compound (—). The procedure: as §2
For another assay, the system named is MRSA strain BAA-1770. In words: Broth microdilution antibiotic potentiation. The assay is classed as cell-based, Staphylococcus aureus. The note with it: Staphylococcus aureus, read-out: Oxacillin MIC, no compound (—). How it is done: as §2

Structures are written as SMILES. “And” between values parts separate entries of the source, which are not always exact repeats. Equal values may be shown once. Read-outs that look alike come from different tables or passages of the source.

In general, MIC refers to the lowest concentration found to suppress growth.

recombinant B. subtilis PBP4, sequence (P40750 22-624): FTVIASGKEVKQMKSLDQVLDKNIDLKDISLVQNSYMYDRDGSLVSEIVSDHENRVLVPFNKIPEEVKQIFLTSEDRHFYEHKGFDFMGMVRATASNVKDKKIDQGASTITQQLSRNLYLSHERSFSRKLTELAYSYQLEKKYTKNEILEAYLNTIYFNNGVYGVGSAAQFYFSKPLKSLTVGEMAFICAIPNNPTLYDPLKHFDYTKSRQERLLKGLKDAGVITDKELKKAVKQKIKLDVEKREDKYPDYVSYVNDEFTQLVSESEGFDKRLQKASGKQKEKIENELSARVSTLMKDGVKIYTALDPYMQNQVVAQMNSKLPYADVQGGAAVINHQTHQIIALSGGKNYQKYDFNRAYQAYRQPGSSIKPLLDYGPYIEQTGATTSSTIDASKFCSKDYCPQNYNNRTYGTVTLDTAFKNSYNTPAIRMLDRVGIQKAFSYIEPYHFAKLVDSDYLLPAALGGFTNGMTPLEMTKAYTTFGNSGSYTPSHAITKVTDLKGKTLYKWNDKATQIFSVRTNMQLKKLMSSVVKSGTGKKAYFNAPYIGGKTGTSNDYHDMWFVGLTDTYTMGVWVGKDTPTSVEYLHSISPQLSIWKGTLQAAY

On to `CC1(C)S[C@@H]2[C@H](NC(=O)[C@H](N)c3ccccc3)C(=O)N2[C@H]1C(=O)O` [Ampicillin, ampicillin], for which the “Effect of preincubation on BOCILLIN FL binding to PBP4 (fluorescence polarization)” value in assay [1] is recorded as “limited BOCILLIN™ FL binding”. The “Concentration of maximum BOCILLIN FL binding inhibition” value in [1] (dose-response 0-50 μM) was 25 to 50 µM. For the same molecule, in the assay on recombinant PBP4, the “Effect of preincubation on BOCILLIN FL labeling of PBP4 (gel)” value is “reduced the protein's ability to bind the fluorescent substrate in a dose-dependent manner”. Further, the MIC came out at 16 µg/mL in the assay on MRSA strain AH-1263 (AH-1263, read-out: Ampicillin MIC, no compound (—)); 2 µg/mL with MRSA strain AH-2204 (AH-2204, read-out: Ampicillin MIC, no compound (—)); 16 µg/mL in assay [2] (ATCC BAA-1556, read-out: Ampicillin MIC, no compound (—)).
`Cc1onc(-c2ccccc2)c1C(=O)N[C@@H]1C(=O)N2[C@@H]1SC(C)(C)[C@@H]2C(=O)O` [Oxacillin, oxacillin]: the “Oxacillin MIC, no compound (—)” value is 32 µg/mL in the assay with MRSA strain AH-1263 (AH-1263); 32 µg/mL and 16 µg/mL in assay [2] (ATCC BAA-1556). Besides, the MIC is 16 µg/mL with MRSA strain AH-1263 (read-out: Oxacillin MIC, no compound (—), AH-1263); 32 µg/mL with MRSA strain AH-2204 (read-out: Oxacillin MIC, no compound (—), AH-2204); 32 µg/mL in assay [2] (read-out: Oxacillin MIC, no compound (—), ATCC BAA-1556); 16 µg/mL with MRSA strain 700699; 64 µg/mL in the assay on MRSA strain BAA-1685; 16 µg/mL in the assay with MRSA strain BAA-44. Besides, the MIC in the assay with MRSA strain BAA-811 was 256 µg/mL; in the assay on MRSA strain 43300 it was 512 µg/mL; with MRSA strain 700789, 256 µg/mL; in the assay with MRSA strain BAA-1770, 512 µg/mL.
